Data as given in patent US9868757B2, “5-β, 14-β-androstane derivatives useful for the treatment of proteinuria, glomerulosclerosis and renal failure” (SIGMA-TAU INDUSTRIE FARMACEUTICHE RIUNITE S.p.A., priority 2009, dated 2018).
“And” between values parts separate entries of the source, which are not always exact repeats. Identical values can stand only once.

How the values were obtained:
[1] = test system: rats chronically infused with ouabain (OS rats); experiment: Nephrin quantification from renal cortex microsomes of OS rats by Western blotting; type: in vivo, rat
Experimental: (§1) To test the activity of the compound of the invention for the prevention of proteinuria and loss of renal glomerular proteins, rats chronically infused with ouabain (OS rats) or saline (Control rats) were utilized.
(§2) Two groups of 2-month-old OS rats (n=8 each) were orally treated by gavage with vehicle (Methocel 0.5%) or Rostafuroxin (100 μg/kg) for 8 weeks. One group of saline infused rats was used as control. After this period, systolic blood pressure and urinary protein excretion was measured in the three groups. The animals of the three groups were then sacrificed for nephrin quantification from renal cortex microsomes by Western blotting.
(§3) Three week-old male Sprague-Dawley rats (Harlan, Ind.), weighing 100-110 g, were subcutaneously implanted with osmotic mini-pumps, releasing either 15 μg/kg/day of ouabain (OS rats, n=16) for 14 weeks or sterile saline (CS rats, n=8) (Ferrari P. et al. J. Pharmacol Exp. Ther. 1998; 285: 83-94). […] Systolic blood pressure (SBP) and heart rate (HR) were measured weekly in conscious rats by tail-cuff plethysmography (BP recorder, U. Basile, Italy).
(§4) Urinary parameters were measured in conscious OS and control rats at the 12th week of treatment. […] After centrifugation (4500 rpm for 20 min; Varifuge 3.2 RS, Haereus Instruments, AHSI, Milan, Italy), rat urines were analyzed for the urinary volume (ml), quantified by weighing the urinary reservoir on a precision Mettler balance; urinary pH (pHM83, Radiometer, Copenhagen) and total urinary protein excretion (mg/24 h), measured with a standard total protein Kit (Sentinel Diagnostics, Milan, Italy). The animals of the three groups were then sacrificed, renal cortical microsomes were prepared from each rat and nephrin, the key protein of the slit diaphragm membrane, was quantified by Western blotting. […] Nephrin quantification is expressed as optical density, arbitrary units.

[2] = test system: rats chronically infused with ouabain (OS rats); experiment: Systolic blood pressure by tail-cuff plethysmography in ouabain-infused (OS) rats; type: in vivo, rat
Experimental: as §1, §2
Three week-old male Sprague-Dawley rats (Harlan, Ind.), weighing 100-110 g, were subcutaneously implanted with osmotic mini-pumps, releasing either 15 μg/kg/day of ouabain (OS rats, n=16) for 14 weeks or sterile saline (CS rats, n=8) (Ferrari P. et al. J. Pharmacol Exp. Ther. 1998; 285: 83-94). At the 6th week of ouabain infusion, OS rats were randomly assigned to two groups (n=8 each): the first (OS treated) received Rostafuroxin orally at 100 μg/kg/day, suspended in 0.5% w/v Methocel, and the second group (controls) only vehicle. Systolic blood pressure (SBP) and heart rate (HR) were measured weekly in conscious rats by tail-cuff plethysmography (BP recorder, U. Basile, Italy).

[3] = test system: rats chronically infused with ouabain (OS rats); experiment: Total urinary protein excretion in ouabain-infused (OS) rats; type: in vivo, rat
Experimental: as §1, §2, §3, §4

Podocytes from NB rats = experiment: Podocyte protein quantification by Western blotting in cultured podocytes from NB rats; type: cell-based, rat
Excerpt: To test the activity of the compound of the invention for the prevention of loss of podocyte proteins, congenic NB rats carrying the beta adducin mutation (Tripodi G. et at Effect of Addl gene transfer on blood pressure in reciprocal congenic strains of Milan rats. BBRC 2004; 324: 562-568) were used. Said NB rats are non-hypertensive rats and are available at Prassis Research Institute, Sigma-tau, Italy.
NB rats of 7 to 10 days of age were used for podocyte isolation and culture. Podocytes from NB rats were incubated for 5 days without (NB control, n=4) and with Rostafuroxin at 10^−9M (NB n=5). Podocyte proteins were quantified at the end of the 5 days of incubation by Western blotting. The quantification by Western blot was replicated two to three times for each podocyte marker. Tables IA and IB show the final number of podocyte samples analyzed for each condition, as mean values of the replicates (NB control, n=4; NB+Rostafuroxin, n=5). The densitometric analysis was quantified as optical density, in arbitrary units.
Glomeruli were isolated from NB kidneys by sieving and further manually purification. Glomeruli were then seeded in culture flasks (Corning, Sigma-Aldrich, Milan, Italy), pre-coated with collagen type IV (Sigma-Aldrich) at 37° C. in 5% CO2 atmosphere. On days 4 to 5, podocyte growth started and, by day 8, glomeruli were detached using trypsin-EDTA. […] Podocyte protein quantification (10 μg protein/lane) was performed by Western blotting technique by using specific antibodies against nephrin, podocin, ZO-1, adducin, synaptopodin and actin.

[4] = OS rats orally treated for 8 weeks with Rostafuroxin 100 μg/kg/day, FIG. 6
[5] = NB + Rostafuroxin 10^-9M vs NB controls
[6] = NB podocytes, 5 days with Rostafuroxin 10^-9M, individual samples/replicates
[7] = NB podocytes, 5 days with Rostafuroxin 10^-9M, mean ± sem

C[C@]12CC[C@H](O)C[C@H]1CC[C@@H]1[C@@H]2CC[C@]2(C)[C@@](O)(c3ccoc3)CC[C@]12O [Rostafuroxin]
Nephrin expression from renal cortex (in words) [1, 4]: increased
Nephrin optical density ([1]; OS rats, 100 μg/kg os Rostafuroxin for 8 weeks, renal cortex microsomes, individual rats): 51.4 arbitrary units and 50.8 arbitrary units and 76.1 arbitrary units and 57.4 arbitrary units and 48.8 arbitrary units and 53.8 arbitrary units and 64.7 arbitrary units and 54.8 arbitrary units
Nephrin optical density, mean ± sem ([1]; OS rats, 100 μg/kg os Rostafuroxin for 8 weeks, renal cortex microsomes, n = 8): 57.3 ± 3.1, n = 8 arbitrary units
systolic blood pressure (SBP) (in words) [2, 4]: significantly reduced
Systolic blood Pressure ([2]; OS rats, 100 μg/kg os Rostafuroxin for 8 weeks, individual rats): 155 mmHg (3×) and 145 mmHg (2×) and 150 mmHg (2×) and 135 mmHg
Systolic blood Pressure, mean ± sem ([2]; OS rats, 100 μg/kg os Rostafuroxin for 8 weeks, n = 8): 148.8 ± 2.5, n = 8 mmHg
urinary protein excretion (in words) [3, 4]: significantly reduced
Proteinuria ([3]; OS rats, 100 μg/kg os Rostafuroxin, 24-hours urine, individual rats): 55.34 mg/24 h and 29.02 mg/24 h and 39.7 mg/24 h and 40.68 mg/24 h and 20.85 mg/24 h and 48.88 mg/24 h and 53.07 mg/24 h and 20.14 mg/24 h
Proteinuria, mean ± sem ([3]; OS rats, 100 μg/kg os Rostafuroxin, 24-hours urine, n = 8): 38.5 ± 4.9, n = 8 mg/24 h
Actin, % vs. Ctrl. (Podocytes from NB rats; [5]): ns
Nephrin, % vs. Ctrl. (Podocytes from NB rats; [5]): +34%
Podocin, % vs. Ctrl. (Podocytes from NB rats; [5]): +60%
Synaptopodin, % vs. Ctrl. (Podocytes from NB rats; [5]): +143%
ZO-1, % vs. Ctrl. (Podocytes from NB rats; [5]): +86%
α-Adducin, % vs. Ctrl. (Podocytes from NB rats; [5]): +95%
amounts of Nephrin, ZO-1, Podocin, α-Adducin and Synaptopodin (in words) (Podocytes from NB rats; NB podocytes cultured 5 days with 10^-9M Rostafuroxin, FIG. 5): increased
Synaptopodin, optical density (Podocytes from NB rats; NB podocytes, 5 days with Rostafuroxin 10^-9M, individual samples): 2.7 arbitrary units and 2.51 arbitrary units and 4.29 arbitrary units and 1.43 arbitrary units and 2.56 arbitrary units
Actin, optical density (Podocytes from NB rats; [6]): 130.5 arbitrary units and 115 arbitrary units and 87.5 arbitrary units and 140.4 arbitrary units and 111 arbitrary units and 98 arbitrary units and 98.2 arbitrary units and 81.2 arbitrary units and 86.2 arbitrary units and 101.2 arbitrary units and 101 arbitrary units and 144.2 arbitrary units and 87.7 arbitrary units and 108 arbitrary units and 103 arbitrary units and 91.6 arbitrary units
Nephrin optical density (Podocytes from NB rats; [6]): 24.53 arbitrary units and 27.06 arbitrary units
Podocin, optical density (Podocytes from NB rats; [6]): 23.4 arbitrary units and 49.06 arbitrary units and 13.3 arbitrary units and 19.07 arbitrary units and 16.81 arbitrary units and 18.63 arbitrary units and 21.42 arbitrary units and 18.78 arbitrary units and 23.84 arbitrary units and 36.51 arbitrary units and 21.23 arbitrary units and 23.65 arbitrary units and 27.62 arbitrary units
ZO-1, optical density (Podocytes from NB rats; [6]): 6.38 arbitrary units and 7.5 arbitrary units and 8.73 arbitrary units and 13.33 arbitrary units and 15.79 arbitrary units and 11.67 arbitrary units and 16.05 arbitrary units and 19.98 arbitrary units and 12.78 arbitrary units and 19.06 arbitrary units and 20.13 arbitrary units and 17.3 arbitrary units and 17.8 arbitrary units
α-Adducin, optical density (Podocytes from NB rats; [6]): 22.23 arbitrary units and 6.06 arbitrary units and 5.70 arbitrary units and 6.77 arbitrary units and 8.06 arbitrary units and 7.53 arbitrary units and 9.33 arbitrary units and 7.07 arbitrary units
Nephrin, optical density, mean (Podocytes from NB rats; NB podocytes, 5 days with Rostafuroxin 10^-9M, mean): 25.8 arbitrary units
Actin, optical density, mean ± sem (Podocytes from NB rats; [7]): 105.3 ± 4.75 arbitrary units
Podocin, optical density, mean ± sem (Podocytes from NB rats; [7]): 24.13 ± 2.6 arbitrary units
Synaptopodin, optical density, mean ± sem (Podocytes from NB rats; [7]): 2.70 ± 0.45 arbitrary units
ZO-1, optical density, mean ± sem (Podocytes from NB rats; [7]): 14.36 ± 1.3 arbitrary units
α-Adducin, optical density, mean ± sem (Podocytes from NB rats; [7]): 9.09 ± 1.9 arbitrary units
